Data set [1] in a line: physchem. As to conditions: 1-octanol/phosphate buffer, pH 7.4.
Data set [2] can be described thus: Aqueous solubility of compound incubated for 90 mins under shaking condition. It counts as physicochemical. The conditions noted are these: buffer.
Data set [3] can be described thus: Volume of distribution at steady state in CD1 mouse at 85 mg/kg, iv measured upto 7 hrs by LC-MS/MS analysis. It is filed as ADME, organism-based. The conditions noted are these: in vivo, read-out: Vdss.
A short description of data set [4]: AUCinfinity in CD1 mouse at 3 mg/kg, iv measured upto 7 hrs by LC-MS/MS analysis. It is filed as ADME, organism-based. On the set-up: route intravenous, dose 3 mg/kg, time <=7. The conditions noted are these: in vivo.
Data set [5] can be described thus: AUCinfinity in CD1 mouse at 85 mg/kg, iv measured upto 7 hrs by LC-MS/MS analysis. It is filed as ADME, organism-based. More on the design: route intravenous, dose 85 mg/kg, time <=7. As to conditions: in vivo.
Data set [6] in a line: AUCinfinity in CD1 mouse at 3 mg/kg, iv pretreated with ABT followed by compound treatment and measured upto 7 hrs by LC-MS/MS analysis. More on the design: route intravenous, dose 3 mg/kg, time <=7. It is filed as ADME, organism-based. The conditions noted are these: in vivo.
Data set [7] is described as follows: Oral bioavailability in CD1 mouse at 5 mg/kg measured upto 7 hrs by LC-MS/MS analysis. It is filed as ADME, organism-based. As to conditions: in vivo.
A short description of data set [8]: Volume of distribution at steady state in CD1 mouse at 3 mg/kg, iv measured upto 7 hrs by LC-MS/MS analysis. It counts as ADME, organism-based. The conditions noted are these: in vivo, read-out: Vdss.
The nature of data set [9]: Volume of distribution at steady state in CD1 mouse at 3 mg/kg, iv pretreated with ABT followed by compound treatment and measured upto 7 hrs by LC-MS/MS analysis. It is filed as ADME, organism-based. The conditions noted are these: in vivo, read-out: Vdss.
Data set [10] is described as follows: AUCinfinity in CD1 mouse at 5 mg/kg, po pretreated with ABT followed by compound treatment and measured upto 7 hrs by LC-MS/MS analysis. It counts as ADME, organism-based. More on the design: route oral, dose 5 mg/kg, time <=7. The conditions noted are these: in vivo.
Data set [11] is described as follows: Volume of distribution at steady state in CD1 mouse at 5 mg/kg, iv pretreated with ABT followed by compound treatment and measured upto 7 hrs by LC-MS/MS analysis. It is filed as ADME, organism-based. As to conditions: in vivo, read-out: Vdss.
The nature of data set [12]: Volume of distribution at steady state in CD1 mouse at 1 mg/kg, iv pretreated with ABT followed by compound treatment and measured upto 7 hrs by LC-MS/MS analysis. It counts as ADME, organism-based. As to conditions: in vivo, read-out: Vdss.
Data set [13] is described as follows: AUCinfinity in CD1 mouse at 5 mg/kg, iv pretreated with ABT followed by compound treatment and measured upto 7 hrs by LC-MS/MS analysis. It is filed as ADME, organism-based. As to conditions: in vivo. More on the design: route intravenous, dose 5 mg/kg, time <=7.
Data set [14] in a line: Oral bioavailability in CD1 mouse at 3 mg/kg pretreated with ABT followed by compound treatment and measured upto 7 hrs by LC-MS/MS analysis. As to conditions: in vivo. It counts as ADME, organism-based.
Data set [15] can be described thus: Oral bioavailability in CD1 mouse at 30 mg/kg pretreated with ABT followed by compound treatment and measured upto 7 hrs by LC-MS/MS analysis. It counts as ADME, organism-based. The conditions noted are these: in vivo.
The nature of data set [16]: AUCinfinity in CD1 mouse at 1 mg/kg, iv pretreated with ABT followed by compound treatment and measured upto 7 hrs by LC-MS/MS analysis. It counts as ADME, organism-based. More on the design: route intravenous, dose 1 mg/kg, time <=7. The conditions noted are these: in vivo.
Data set [17] can be described thus: AUCinfinity in CD1 mouse at 30 mg/kg, po pretreated with ABT followed by compound treatment and measured upto 7 hrs by LC-MS/MS analysis. It is filed as ADME, organism-based. More on the design: route oral, dose 30 mg/kg, time <=7. As to conditions: in vivo.
A short description of data set [18]: AUCinfinity in CD1 mouse at 3 mg/kg, po pretreated with ABT followed by compound treatment and measured upto 7 hrs by LC-MS/MS analysis. It counts as ADME, organism-based. More on the design: route oral, dose 3 mg/kg, time <=7. As to conditions: in vivo.

SMILES strings stand for the structures. In brackets after ≈: the same amount, converted by molar mass.

Consider `N#Cc1ccc(CN(Cc2nnc(N)o2)C(=O)CSc2ccccc2Cl)cn1`, for which, in [1], the logD (usually lipophilicity at a set pH, counting ionised and neutral species) at 2 h, 25 µM was 1.4. In [2], the solubility (in general, the concentration that dissolves in the medium under given conditions) at […] came out at 340 µg/mL (≈ 820 µM).
`N#Cc1cc(F)c(CN(Cc2nnc(N)o2)C(=O)CSc2cc(F)cc(F)c2Cl)c(F)c1` gave a logD at 2 h, 25 µM in data set [1] of 2.4. The molecule further displayed a solubility at […] in data set [2] of 60 µg/mL (≈ 123 µM).
For `N#Cc1ccc(CN(Cc2nnc(N)o2)C(=O)CSc2ccccc2OC(F)(F)F)c(F)c1`, in that order: 1.6 and 90 µg/mL (≈ 187 µM).
Take `[2H]C([2H])(Oc1cc(F)cc(F)c1C([2H])([2H])C([2H])([2H])[2H])C(=O)N(Cc1nnc(N)o1)Cc1ccc(C#N)cc1F`: the logD at 2 h, 25 µM in data set [1] amounted to 3.
The same measure, in the same setting: to `CCc1ccccc1SCC(=O)N(Cc1ccc(C#N)cc1)Cc1nnc(N)o1` belongs 2.5.
In turn, `[2H]C([2H])(Oc1cc(F)cc(F)c1C([2H])([2H])C([2H])([2H])[2H])C(=O)N(Cc1nnc(N)o1)Cc1ccc(S(N)(=O)=O)cc1F` returned a logD at 2 h, 25 µM in [1] of 2. The values for the Vd in data set [3], in [8] and in data set [9] were 10.3 L/kg, 0.34 L/kg and 0.31 L/kg, respectively. Also, the AUC(0-inf) (in general, the area under the concentration-time curve extrapolated to infinity) stood at 62100 ng·h/mL in [4], 24000 ng·h/mL in [5], 35300 ng·h/mL in data set [6] and 7690 ng·h/mL in data set [10]. The bioavailability in data set [7] is 7.4%. Moreover, the solubility at […] in data set [2] stood at 460 µg/mL (≈ 908 µM).
In data set [1], `[2H]C([2H])(Oc1cc(F)cc(F)c1C([2H])([2H])C([2H])([2H])[2H])C(=O)N(Cc1ccc(C#N)nc1)Cc1nnc(N)o1` had a logD at 2 h, 25 µM of 2.1.
Same read-out and setting: in the case of `N#Cc1ccc(CN(Cc2nnc(N)o2)C(=O)CCc2ccccc2)cn1` it was 1.5.
Consider `N#Cc1ccc(CN(Cc2nnc(N)o2)C(=O)CSc2ccccc2Cl)cc1`, for which, in data set [1], the logD at 2 h, 25 µM came out at 2. In data set [2], this molecule came in with a solubility at […] of 120 µg/mL (≈ 290 µM).
For the molecule `Nc1nnc(CN(Cc2ccc(S(N)(=O)=O)cc2F)C(=O)COc2cc(F)cc(F)c2C2CC2)o1`, the logD at 2 h, 25 µM in data set [1] was 2.1.
For `Nc1nnc(CN(Cc2ccc(O)nc2)C(=O)COc2cc(F)cc(F)c2C2CC2)o1`, in data set [1], the logD at 2 h, 25 µM amounted to 2.2. Besides, the concentration in solution in [2] (solubility at […]) was 150 µg/mL (≈ 348 µM).
Take `CCc1c(F)cc(F)cc1O[C@H](C)C(=O)N(Cc1nnc(N)o1)Cc1ccc(C#N)cc1F`: in [1], the logD at 2 h, 25 µM turned out to be 3.
In turn, `N#Cc1ccc(CN(Cc2nnc(N)o2)C(=O)COc2cc(F)cc(F)c2C2CC2)cn1` displayed a logD at 2 h, 25 µM in data set [1] of 2.2.
The same measure, in the same setting: in the case of `CCc1c(F)cc(F)cc1OCC(=O)N(Cc1nnc(N)o1)Cc1ccc(S(N)(=O)=O)cc1F` it was 2.1.
Same read-out and setting: in the case of `N#Cc1ccc(CN(Cc2nnc(N)o2)C(=O)COc2cc(F)cc(F)c2Cl)cn1` it was 1.4.
The molecule `Nc1nnc(CN(Cc2ccc(S(N)(=O)=O)cc2F)C(=O)CSc2cc(F)cc(F)c2Cl)o1` showed a logD at 2 h, 25 µM in data set [1] of 1.8. Further, the solubility at […] in [2] was 330 µg/mL (≈ 632 µM).
As for `N#Cc1ccc(CN(Cc2nnc(N)o2)C(=O)CSc2ccccc2CC(F)(F)F)c(F)c1`, the pH-dependent lipophilicity (logD) at 2 h, 25 µM in data set [1] was 2.3. In data set [2], this molecule displayed a solubility at […] of 90 µg/mL (≈ 188 µM).
As to `N#Cc1ccc(CN(Cc2nnc(N)o2)C(=O)CSc2ncccc2Cl)cn1`, the logD at 2 h, 25 µM in data set [1] worked out at 1.1.
`CCc1c(F)cc(F)cc1OCC(=O)N(Cc1ccc(C#N)cc1)Cc1nnc(N)o1`: the Vd in data set [11] stood at 3.3 L/kg; in data set [12], 3.97 L/kg. For the same molecule, the logD at 2 h, 25 µM in [1] came to 2.8. Besides, the area under the curve AUC(0-inf) amounted to 1040 ng·h/mL in data set [13], 218 ng·h/mL in data set [16], 9180 ng·h/mL in data set [17] and 323 ng·h/mL in data set [18]. The bioavailability was 48.6% in data set [14] and 138% in data set [15].
Regarding `CCc1c(F)cc(F)cc1OCC(=O)N(Cc1nnc(N)o1)Cc1ccc(C#N)cc1F`, in data set [1], the logD at 2 h, 25 µM is 2.7.
Still for that read-out and setting: in the case of `N#Cc1ccc(CN(Cc2nnc(N)o2)C(=O)CSc2cc(F)cc(F)c2Cl)c(F)c1` it was 2.6.
In data set [1], `N#Cc1ccc(CN(Cc2nnc(N)o2)C(=O)COc2ccccc2Cl)cn1` showed a logD at 2 h, 25 µM of 1. In [2], the solubility at […] amounted to 850 µg/mL (≈ 2130 µM).

Values taken from ChEMBL document CHEMBL4837258, “Discovery of Novel UDP-N-Acetylglucosamine Acyltransferase (LpxA) Inhibitors with Activity against Pseudomonas aeruginosa” (J Med Chem, 2021).
